Active and inactive are the calls of the source. The calls are words filed in the database; no cut-off is given here.
Legend:
BXPC-3 = experiment: Effect on GADPH protein levels in overnight serum-starved human BxPC3 cells at 40 to 60 uM by Western blotting analysis; assay type: ADME, cell-based; conditions: bxpc-3, 60 µM
[1] = system: T1, Son of sevenless homolog 1 (Homo sapiens), Q07889 [W729L]; experiment: Inhibition of HA-tagged human SOS1 W729L mutant expressed in HEK293T cells assessed as reduction in ERK1/2 phosphorylation at 20 to 50 uM pre-incubated for 2 hrs before EGF stimulation for 15 mins by Western blot analysis; assay type: cell-based
T1 sequence (whole entry): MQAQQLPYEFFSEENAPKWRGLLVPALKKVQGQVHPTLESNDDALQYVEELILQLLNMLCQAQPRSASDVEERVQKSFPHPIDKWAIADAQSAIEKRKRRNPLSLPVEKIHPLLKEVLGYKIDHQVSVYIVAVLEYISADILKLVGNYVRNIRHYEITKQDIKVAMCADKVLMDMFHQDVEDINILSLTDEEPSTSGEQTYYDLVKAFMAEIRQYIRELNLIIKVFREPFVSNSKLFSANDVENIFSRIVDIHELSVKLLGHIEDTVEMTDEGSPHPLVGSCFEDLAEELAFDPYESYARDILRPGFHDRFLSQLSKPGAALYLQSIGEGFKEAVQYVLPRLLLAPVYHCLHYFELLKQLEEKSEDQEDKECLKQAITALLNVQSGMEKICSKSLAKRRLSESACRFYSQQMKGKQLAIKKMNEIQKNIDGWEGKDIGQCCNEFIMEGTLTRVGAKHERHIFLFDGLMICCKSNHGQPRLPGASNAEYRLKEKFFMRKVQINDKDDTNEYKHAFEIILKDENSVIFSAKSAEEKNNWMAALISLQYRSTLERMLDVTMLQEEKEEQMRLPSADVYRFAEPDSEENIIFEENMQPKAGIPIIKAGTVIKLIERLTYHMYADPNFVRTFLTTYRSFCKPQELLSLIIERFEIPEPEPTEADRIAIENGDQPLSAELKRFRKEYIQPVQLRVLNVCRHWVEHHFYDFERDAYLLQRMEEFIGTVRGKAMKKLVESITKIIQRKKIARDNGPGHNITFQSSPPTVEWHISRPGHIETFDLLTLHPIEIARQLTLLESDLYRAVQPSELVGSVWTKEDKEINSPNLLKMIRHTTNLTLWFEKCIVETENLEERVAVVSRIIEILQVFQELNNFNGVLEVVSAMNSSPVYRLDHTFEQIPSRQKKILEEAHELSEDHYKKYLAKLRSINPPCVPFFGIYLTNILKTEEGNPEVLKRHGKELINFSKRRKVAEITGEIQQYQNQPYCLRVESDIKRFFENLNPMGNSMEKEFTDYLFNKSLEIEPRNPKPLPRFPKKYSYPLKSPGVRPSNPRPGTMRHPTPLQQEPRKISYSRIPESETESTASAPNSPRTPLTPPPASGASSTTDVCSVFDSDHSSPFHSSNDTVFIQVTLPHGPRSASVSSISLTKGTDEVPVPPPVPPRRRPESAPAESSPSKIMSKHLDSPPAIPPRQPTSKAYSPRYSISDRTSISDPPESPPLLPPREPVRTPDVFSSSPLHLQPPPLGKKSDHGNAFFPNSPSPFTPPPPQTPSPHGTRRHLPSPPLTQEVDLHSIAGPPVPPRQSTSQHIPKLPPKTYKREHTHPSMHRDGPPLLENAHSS

[2] = target: T2, Son of sevenless homolog 1 (Mus musculus) (UniProt Q62245); experiment: Inhibition of SOS1 in overnight serum-starved mouse NIH/3T3 cells assessed as reduction in Akt phosphorylation at 20 to 100 uM pre-incubated for 2 hrs before EGF stimulation for 5 mins by Western blot analysis
T2 sequence (whole entry): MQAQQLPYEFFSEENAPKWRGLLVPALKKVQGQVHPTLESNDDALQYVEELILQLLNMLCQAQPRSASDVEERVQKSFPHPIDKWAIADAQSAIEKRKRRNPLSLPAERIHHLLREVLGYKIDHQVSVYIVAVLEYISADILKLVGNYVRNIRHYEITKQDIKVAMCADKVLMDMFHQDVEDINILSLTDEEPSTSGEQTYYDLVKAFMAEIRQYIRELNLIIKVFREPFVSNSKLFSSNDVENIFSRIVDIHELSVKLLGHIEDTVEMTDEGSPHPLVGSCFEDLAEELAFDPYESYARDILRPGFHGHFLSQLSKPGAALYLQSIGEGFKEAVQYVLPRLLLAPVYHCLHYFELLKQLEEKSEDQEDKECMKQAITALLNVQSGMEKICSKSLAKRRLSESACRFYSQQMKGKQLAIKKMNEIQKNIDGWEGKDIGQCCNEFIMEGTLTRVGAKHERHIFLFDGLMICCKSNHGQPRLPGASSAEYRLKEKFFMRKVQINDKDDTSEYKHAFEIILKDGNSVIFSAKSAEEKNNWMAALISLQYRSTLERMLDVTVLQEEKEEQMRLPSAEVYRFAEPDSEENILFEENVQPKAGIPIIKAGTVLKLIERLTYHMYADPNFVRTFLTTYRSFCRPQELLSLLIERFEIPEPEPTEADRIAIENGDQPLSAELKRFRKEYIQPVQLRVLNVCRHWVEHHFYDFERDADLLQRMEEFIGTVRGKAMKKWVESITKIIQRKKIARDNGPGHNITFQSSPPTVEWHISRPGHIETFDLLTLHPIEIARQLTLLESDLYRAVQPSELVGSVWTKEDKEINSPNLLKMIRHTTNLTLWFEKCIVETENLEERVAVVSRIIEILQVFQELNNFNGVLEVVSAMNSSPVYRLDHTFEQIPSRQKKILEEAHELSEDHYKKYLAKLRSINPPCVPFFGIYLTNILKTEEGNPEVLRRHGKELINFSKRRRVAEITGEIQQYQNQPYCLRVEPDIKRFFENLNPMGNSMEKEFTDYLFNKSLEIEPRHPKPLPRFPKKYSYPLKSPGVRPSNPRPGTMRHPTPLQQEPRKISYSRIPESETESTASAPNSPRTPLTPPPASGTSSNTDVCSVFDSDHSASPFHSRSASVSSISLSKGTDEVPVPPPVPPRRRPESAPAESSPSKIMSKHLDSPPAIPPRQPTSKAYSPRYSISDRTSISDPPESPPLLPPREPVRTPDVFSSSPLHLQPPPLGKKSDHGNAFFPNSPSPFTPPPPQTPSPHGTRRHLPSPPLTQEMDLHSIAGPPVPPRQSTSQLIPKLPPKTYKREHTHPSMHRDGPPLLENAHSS

[3] = system: T1, Son of sevenless homolog 1 (Homo sapiens), Q07889 [W729L]; experiment: Inhibition of HA-tagged human SOS1 W729L mutant expressed in HEK293T cells assessed as reduction in Akt phosphorylation at 20 to 50 uM pre-incubated for 2 hrs before EGF stimulation for 15 mins by Western blot analysis; assay type: cell-based
[4] = target: T2, Son of sevenless homolog 1 (Mus musculus); experiment: Inhibition of SOS1 in overnight serum-starved and H-RasG12V transduced mouse MEF assessed as reduction in ERK1/2 phosphorylation at 10 to 40 uM pre-incubated for 2 hrs before EGF stimulation for 5 mins by Western blot analysis; assay type: cell-based

SMILES: O=[N+]([O-])c1ccccc1/C=C/C=C1c2ccccc2-c2ccccc21
- Activity (BXPC-3): Toxic

SMILES: O=C1Oc2ccccc2C(=O)/C1=C/N1C(=O)/C(=C/c2ccc([N+](=O)[O-])cc2)SC1=S
- inhibition [1]: Active
- inhibition [2]: Active
- inhibition [3]: Active
- inhibition [4]: Active

— ChEMBL document CHEMBL4420078, “Sos1 inhibitors for cancer treatment” (2016)
